How the values were obtained:
[1] = Piperlongumine stability assay (microsomal medium); assay type: physicochemical
Protocol: Method validation protocol and results. The quantification method of PPL was validated by following the European Medicines Agency (EMA) guidelines. Analytical curves were obtained by spiking 200 µL aliquots of HLM with PPL 0.38; 0.95; 9.45; 141.80; 236.34 and 283.61 µM. The linearity was carried out and assessed in triplicate. The linearity was determined using the correlation coefficient (r), the F test for lack-of-fit and a p value of 0.05. The MINITAB Release version 14.1 software (State College, PA, USA) was used to conduct the statistical analysis (Table S1). Carbamazepine (2120 µM) was used as internal standard, and the ratio of the peak area of the PPL and carbamazepine was defined as the analytical response. The lower limit of quantification (LLQ) was obtained by spiking the incubation mixture samples at a concentration of 0.38 µM. The selectivity of the method was assured by analyzing the standard solutions of reagents and the blank HLM (Fig. S1). The absolute recovery (%) was performed at three different concentrations: 0.95, 141.8, 212.7 µM. The recovery was expressed as the percentage of the extracted amount, by comparing the areas from the samples subjected to the extraction procedure with the areas from the analysis of standard solutions of the same concentration that were not submitted to the extraction process. To assess the within-day precision and accuracy, replicate analyzes (n = 5) of 200 µL of microsomal medium spiked at concentrations 0.38, 0.95; 141.8 and 236.3 µM was analyzed in a single day. For between-day assays, samples at the same concentration described above were analyzed for three consecutive days (n = 5) (Table S2). These samples were quantified using a new calibration curve prepared daily. The stability assays were performed to evaluate the PPL stability at three different conditions: (i) at room temperature (25 °C ± 2 °C, for 4 h), (ii) at incubation conditions (37 °C, for 60 min) and (iv) in the autosampler equipment (25 °C ± 2 °C, for 24 h). These assays aimed to evaluate the stability of PPL during sample preparation, during the metabolism reaction and during the analysis, respectively. […] The peak area obtained from the stability assays was quantified using a fresh analytical curve prepared daily. The samples were considered stable when the relative error (RE, %) from the nominal concentration was within ±15% and when the relative standard deviation (RSD%) was below 15% (Table S3).

[2] = Piperlongumine microsomal protein binding (ultrafiltration); assay type: in vitro ADME; conditions: human, pooled human liver microsomes; PPL 127.70 μM; read-out: fumic (free fraction of the compound in the microsomal incubation)
Protocol: Piperlongumine-protein binding. An in vitro study with a microsomal and plasma protein was carried out using a concentration of PPL approximately corresponding to its S50 (n = 3). The plasma protein binding was evaluated to predict the in vivo clearance, using a plasma protein concentration of 42 mg/mL. The samples were incubated with pooled human liver microsomes at 37 °C as described in section above. The same V0 conditions obtained (protein concentration and incubation time) were applied in this study, but in the absence of the cofactor NADPH. Furthermore, a control sample without protein was analyzed simultaneously for comparison purposes. These mixtures were added to the centrifugal filter device (Microcon YM-30, 30,000 molecular weight cut-off; Millipore Corporation, Bedford, MA, USA) and centrifuged at 21800 x g for 30 min at 37 °C (Hitachi CF16RXII, Himac, Tokyo, Japan). The ultra-filtrate was directly assayed by high-performance liquid chromatography at the conditions previously described.

[3] = biological target: CYP3A4 (Homo sapiens, UniProt P08684); assay: biochemical
CYP3A4, sequence (P08684 whole entry): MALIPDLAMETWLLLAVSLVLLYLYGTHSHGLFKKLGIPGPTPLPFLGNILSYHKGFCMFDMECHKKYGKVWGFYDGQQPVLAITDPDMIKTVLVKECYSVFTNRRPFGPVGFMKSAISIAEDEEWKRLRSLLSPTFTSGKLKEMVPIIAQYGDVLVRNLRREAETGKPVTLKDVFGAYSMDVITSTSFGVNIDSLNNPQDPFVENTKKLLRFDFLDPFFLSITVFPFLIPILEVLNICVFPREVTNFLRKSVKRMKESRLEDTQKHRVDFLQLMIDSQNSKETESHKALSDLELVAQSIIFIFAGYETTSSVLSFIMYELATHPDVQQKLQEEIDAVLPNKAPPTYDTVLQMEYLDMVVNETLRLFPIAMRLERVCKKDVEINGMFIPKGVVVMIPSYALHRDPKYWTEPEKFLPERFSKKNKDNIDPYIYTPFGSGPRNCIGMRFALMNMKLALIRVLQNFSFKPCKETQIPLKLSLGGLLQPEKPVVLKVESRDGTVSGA

[4] = biological target: CYP2C9 (Homo sapiens, UniProt P11712); assay: IC50 assay, diclofenac 4'-hydroxylation in HLM
CYP2C9, sequence (P11712 whole entry): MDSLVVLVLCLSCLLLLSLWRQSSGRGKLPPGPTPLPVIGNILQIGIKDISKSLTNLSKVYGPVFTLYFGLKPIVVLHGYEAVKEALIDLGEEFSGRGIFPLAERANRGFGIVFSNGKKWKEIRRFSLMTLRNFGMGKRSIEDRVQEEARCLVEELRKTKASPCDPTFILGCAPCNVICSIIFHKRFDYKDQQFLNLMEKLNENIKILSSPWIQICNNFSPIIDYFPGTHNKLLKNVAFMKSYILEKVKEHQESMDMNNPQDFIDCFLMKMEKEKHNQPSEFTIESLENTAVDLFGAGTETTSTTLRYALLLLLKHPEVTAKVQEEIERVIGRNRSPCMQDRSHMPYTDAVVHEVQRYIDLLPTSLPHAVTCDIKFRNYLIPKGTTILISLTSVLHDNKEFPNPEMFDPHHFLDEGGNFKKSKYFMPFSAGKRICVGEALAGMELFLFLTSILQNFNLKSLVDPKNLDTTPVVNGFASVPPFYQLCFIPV

[5] = biological target: CYP1A2 (Homo sapiens, UniProt P05177); assay: NADPH-dependent inhibition study; assay type: in vitro ADME; conditions: PPL at 1/2 IC50, pre-incubation 0 and 30 min
CYP1A2, sequence (P05177 whole entry): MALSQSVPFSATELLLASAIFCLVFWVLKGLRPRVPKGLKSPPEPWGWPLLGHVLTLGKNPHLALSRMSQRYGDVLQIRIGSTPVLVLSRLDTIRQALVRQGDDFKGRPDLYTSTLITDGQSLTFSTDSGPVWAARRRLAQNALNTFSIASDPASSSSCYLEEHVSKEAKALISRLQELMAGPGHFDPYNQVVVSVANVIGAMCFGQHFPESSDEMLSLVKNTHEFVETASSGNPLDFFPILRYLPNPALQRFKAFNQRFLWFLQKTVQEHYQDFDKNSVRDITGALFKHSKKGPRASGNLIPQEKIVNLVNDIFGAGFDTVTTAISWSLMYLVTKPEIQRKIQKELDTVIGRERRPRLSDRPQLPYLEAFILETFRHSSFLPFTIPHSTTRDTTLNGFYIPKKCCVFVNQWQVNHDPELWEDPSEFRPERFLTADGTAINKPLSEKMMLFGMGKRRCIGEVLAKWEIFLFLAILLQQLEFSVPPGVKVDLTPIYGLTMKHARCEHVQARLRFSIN
Protocol: NADPH-dependent Inhibition. The mechanism-based inhibition is characterized by dose-, NADPH- and time-dependent cytochrome P450 oxidoreductase, so the NADPH dependence study was performed. […] NADPH regeneration system was added and the mixture was pre-incubated for 0 and 30 min. […] The mixture was incubated by 30 min and the reaction stopped as described previously. Controls without PPL were performed.

[6] = Predicted in vivo parameters (in vitro-in vivo scaling); assay type: in vitro ADME, human
Protocol: In vitro-in vivo scaling has been proposed by some authors. […] PPL microsome and plasma bindings were 23% and 93%, respectively. The predicted parameters, Intrinsic Clearance (CLint), Unbounded Intrinsic Clearance (CLuint), Predicted in vivo Clearance (CL), Hepatic Clearance (CLH) and Hepatic Extraction Ratio (E), are expressed in Table 1.
The kinetic parameters were calculated from nonlinear regression using GraphPad Prism Version 3.03 (San Diego, CA, USA). The Intrinsic Clearance (CLint) was obtained considering the Hill coefficient. The Unbounded Intrinsic Clearance (CLuint), Predicted in vivo Clearance (CL) and Hepatic Clearance (CLH) were determined according to Subramarian and Tracy[15] and Austin et al.[17]. Hepatic extraction ratio was calculated according to Kashuba et al.[21]. Dose-dependent inhibition parameters were determined employing SigmaPlot version 12.0 (Chicago, IL, USA). The Lineweaver-Burk plot was used to determine the inhibition profile. The second plot of slopes from Lineweaver-Burk plot versus PPL concentrations was utilized to calculate the Ki. The parameters kinact and KI in time-dependent inhibition were calculated employing GraphPad Prism Version 3.03.

**Q.** For `COc1cc(/C=C/C(=O)N2CCC=CC2=O)cc(OC)c1OC` [PPL, Piperlongumine], which “stability, RE (%) from nominal concentration” value (“stability, RE (%)” below) ([1]; 37°C (1h), PPL 0.95 µM) is on record?
**A.** 0.6%

**Q.** And the “stability, RE (%)” value ([1]; 37°C (1h), PPL 212.7 µM)?
**A.** 0.0%

**Q.** What about the “stability, RE (%)” value ([1]; Auto injector (24 hs), PPL 0.95 µM) of the same compound?
**A.** -4.0%

**Q.** What about the “stability, RE (%)” value ([1]; Auto injector (24 hs), PPL 212.7 µM) of the same compound?
**A.** 0.0%

**Q.** And the “stability, RE (%)” value ([1]; Room temperature (4 hs), PPL 0.95 µM)?
**A.** 0.6%

**Q.** And the “stability, RE (%)” value ([1]; Room temperature (4 hs), PPL 212.7 µM)?
**A.** 6.0%

**Q.** What about the fraction unbound at 127.7 μM [2] of the same compound?
**A.** 0.76

**Q.** And the IC50 [3]?
**A.** > 100 µM

**Q.** What about the IC50 [4] of the same compound?
**A.** > 100 µM

**Q.** What about the “NADPH dependence of CYP oxidative inhibition” value [5] of the same compound?
**A.** NADPH-dependent

**Q.** And the “Hepatic Extraction (E)” value [6]?
**A.** 0.09

**Q.** What about the “Predicted in Vivo Clearance (CL)” value ([6]; 40 mg microsomes/g liver, 20 g liver/kg body weight) of the same compound?
**A.** 19.79 mL/min/kg

**Q.** What about the “Unbounded Intrinsic Clearance (CLuint)” value ([6]; corrected for fumic) of the same compound?
**A.** 29.84 µL/min/mg

**Q.** What about the “Intrinsic Clearance (CLint)” value ([6]; from HLM kinetic data considering the Hill coefficient) of the same compound?
**A.** 22.68 µL/min/mg

**Q.** And the “Hepatic Clearance (CLH)” value ([6]; liver blood flow 20 mL/min/kg)?
**A.** 1.89 mL/min/kg

From publication PMC5041077, “Metabolic profile and safety of piperlongumine” (Scientific Reports, 2016)
